Data reported in patent publication US20240335569A1, “FIBROBLAST ACTIVATION PROTEIN INHIBITORS AND USE THEREOF” (3 B PHARMACEUTICALS GMBH, priority 2021, published 2024).

Assays:
[1] = target: Recombinant human DPP4 (Homo sapiens (Human), UniProt P27487); assay: DPP4 protease activity assay; format: biochemical
Procedure: (§1) The PREP activity assay was performed using the FACS buffer (PBS including 1% FBS, Sigma-Aldrich, Cat #D8537). […] The DPP4 activity assay was performed in DPP assay buffer (25 mM Tris, pH 8.0). […] Four parameter logistic (4PL) curve fitting and pIC50 calculations were performed using ActivityBase software.

[2] = target: recombinant human PREP (Homo sapiens (Human), UniProt P48147); assay: PREP protease activity assay; format: biochemical
Procedure: as §1

[3] = target: T1, Human recombinant FAP (Homo sapiens (Human), UniProt Q12884); assay: FAP protease activity assay (human), FRET-based; format: biochemical
Procedure: (§2) In order to determine the inhibitory activity a FRET-based FAP protease activity assay was established.
Four parameter logistic (4PL) curve fitting and pIC50 calculations were performed using ActivityBase software (IDBS).
Target sequence in this assay (Q12884 26-760): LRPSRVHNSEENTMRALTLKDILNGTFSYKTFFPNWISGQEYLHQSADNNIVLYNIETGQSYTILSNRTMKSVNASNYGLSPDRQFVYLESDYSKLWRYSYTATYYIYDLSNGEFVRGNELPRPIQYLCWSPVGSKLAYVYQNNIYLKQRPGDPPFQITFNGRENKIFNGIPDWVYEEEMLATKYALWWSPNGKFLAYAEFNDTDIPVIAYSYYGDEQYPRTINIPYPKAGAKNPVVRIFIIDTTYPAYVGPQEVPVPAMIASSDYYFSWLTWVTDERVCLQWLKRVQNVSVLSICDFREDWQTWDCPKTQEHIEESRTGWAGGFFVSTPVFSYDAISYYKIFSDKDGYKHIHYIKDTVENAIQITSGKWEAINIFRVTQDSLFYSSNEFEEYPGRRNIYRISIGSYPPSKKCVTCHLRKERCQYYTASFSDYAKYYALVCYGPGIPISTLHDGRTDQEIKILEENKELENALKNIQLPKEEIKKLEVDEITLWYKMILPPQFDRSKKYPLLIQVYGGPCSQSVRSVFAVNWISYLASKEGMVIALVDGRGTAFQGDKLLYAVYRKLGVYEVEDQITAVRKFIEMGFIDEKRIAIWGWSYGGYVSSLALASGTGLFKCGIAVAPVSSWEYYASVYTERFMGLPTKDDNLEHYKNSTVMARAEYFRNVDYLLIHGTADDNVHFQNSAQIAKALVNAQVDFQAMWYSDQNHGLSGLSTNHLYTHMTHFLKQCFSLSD

[4] = target: T1, Human recombinant FAP; assay: Surface plasmon resonance assay (Biacore T200, SCK); format: binding; settings: for pKD (Biacore): SPR; for HL [min] (Biacore): SPR dissociation half-life
Procedure: Surface plasmon resonance studies were performed using a Biacore™ T200 SPR system (Cytiva, formerly GE Healthcare). Briefly, polarized light is directed towards a gold-labeled sensor surface, and minimum intensity reflected light is detected. The angle of reflected light changes as molecules bind and dissociate. […] Test compounds are contacted with the loaded surface, and a real-time interaction profile with the FAP ligand is recorded in a sensorgram. In real-time, the association and dissociation of a binding interaction is measured, enabling calculation of association and dissociation rate constants and the corresponding affinity constants. Importantly, a background response is generated due to the difference in the refractive indices of the running and sample buffers, as well as unspecific binding of the test compounds to the flow cell surface. This background is measured and subtracted by running the sample on a control flow cell coated with the same density of capture antibody in the absence of immobilized FAP. Furthermore, baseline drift correction of the binding data is performed, which is caused by slow dissociation of the captured FAP from the immobilized antibody. This drift is measured by injecting running buffer through a flow cell with the antibody and FAP immobilized to the sensor surface.
Biacore™ CM5 sensor chips were used. […] A 150 μL aliquot was transferred into plastic vials and placed into the sample rack of the Biacore™ T200 instrument. Amine Coupling Kit Reagent solutions were transferred into plastic vials and placed into the sample rack: 90 μL of 0.4 M 1-ethyl-3-(3-dimethylaminopropyl) carbodiimide (EDC), and 90 μL of 0.1 M N-hydroxysuccinimide (NHS). A 130 μL aliquot of 1 M ethanolamine-HCl, pH 8.5, was transferred into plastic vials and placed into the sample rack. The Biacore™ liquid system was set-up as follows: Separate bottles containing distilled water (1 L), Running Buffer (500 mL), as well as an empty bottle for waste were placed onto the buffer tray. A preinstalled program for immobilization was used, with an immobilization level of 7000 RU. Immobilization was performed at 25° C. The immobilization procedure of anti-FAP antibodies was performed, as described in the Table 4.
Human recombinant FAP was diluted in Running Buffer to a final concentration of 20 μg/mL. A 100 μL aliquot of human FAP-Working-Solution was transferred into plastic vials and placed into a sample rack. A 0.5 mM Compound-Stock-Solution was prepared by dissolving each compound in DMSO. For each test compound, Compound-Stock-Solutions were diluted in Running Buffer (HBST) at 500 nM and further diluted with HBST-DMSO Buffer (0.1% DMSO). SPR binding analyses for binary complexes were performed in SCK mode at 25° C. Following three SCK measurements, a baseline drift was assessed by injecting running buffer through a flow cell, with the antibody and FAP immobilized to the sensor surface.
For each test compound, SPR raw data in the form of resonance units (RU) were plotted as sensorgrams using the Biacore™ T200 control software. The signal from the blank sensorgram was subtracted from that of the test compound sensorgram (blank corrected). The blank corrected sensorgram was corrected for baseline drift by subtracting the sensorgram of a SCK run without the test compound (running buffer only). The association rate (kon), dissociation rate (koff), dissociation constant (KD), and t1/2 were calculated from Blank-normalized SPR data using the 1:1 Langmuir binding model from the Biacore™ T200 evaluation software. Raw data and fit results were imported as text files in IDBS. The pKD value (negative decadic logarithm of dissociation constant) was calculated in the IDBS excel template.
Target sequence in this assay (Q12884 whole entry): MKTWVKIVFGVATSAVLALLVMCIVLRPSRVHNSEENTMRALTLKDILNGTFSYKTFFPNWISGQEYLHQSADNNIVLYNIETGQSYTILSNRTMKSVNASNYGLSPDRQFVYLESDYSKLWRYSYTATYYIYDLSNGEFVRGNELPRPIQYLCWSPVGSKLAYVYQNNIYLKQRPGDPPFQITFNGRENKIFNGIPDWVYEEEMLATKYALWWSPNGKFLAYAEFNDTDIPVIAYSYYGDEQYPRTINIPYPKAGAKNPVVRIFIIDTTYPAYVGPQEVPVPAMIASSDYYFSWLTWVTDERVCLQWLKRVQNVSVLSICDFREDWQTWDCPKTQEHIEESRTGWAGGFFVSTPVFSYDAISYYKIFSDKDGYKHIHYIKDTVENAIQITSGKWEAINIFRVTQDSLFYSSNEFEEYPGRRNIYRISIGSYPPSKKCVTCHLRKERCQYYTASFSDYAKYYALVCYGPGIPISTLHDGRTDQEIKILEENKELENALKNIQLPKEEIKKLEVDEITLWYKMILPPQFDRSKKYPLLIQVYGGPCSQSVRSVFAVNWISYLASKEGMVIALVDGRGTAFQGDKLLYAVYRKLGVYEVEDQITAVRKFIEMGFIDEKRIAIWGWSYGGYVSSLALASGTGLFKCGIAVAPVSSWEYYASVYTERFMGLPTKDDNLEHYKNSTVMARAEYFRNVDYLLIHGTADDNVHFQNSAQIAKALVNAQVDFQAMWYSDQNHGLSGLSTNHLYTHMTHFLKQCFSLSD

[5] = target: FAP-expressing human WI-38 fibroblasts (Homo sapiens (Human), UniProt Q12884); assay: FACS binding assay (competitive, Cy5-labeled 3BP-2935)
Procedure: In order to determine binding of compounds according to the present invention to FAP-expressing cells, a competitive FACS binding assay was established. […] Cells were diluted in FACS buffer to a final concentration of 100.000 cells per ml and 200 μl of the cell suspension are transferred to a u-shaped non-binding 96-well plate (Greiner). […] Cell were washed twice with FACS buffer (see above) and resuspended in 200 μl FACS buffer. Cells were analyzed in an Attune NxT flow cytometer (Thermo Fisher Scientific). Median fluorescence intensities (Cy5 channel) were calculated by Attune NxT software and plotted against test compound concentrations. Four parameter logistic (4PL) curve fitting and pIC50 calculations were performed using ActivityBase software.

[6] = target: Recombinant mouse FAP (Mus musculus (Mouse), UniProt P97321); assay: FAP protease activity assay (mouse), FRET-based; format: biochemical
Procedure: as §2
Four parameter logistic (4PL) curve fitting and pIC50 calculations were performed using ActivityBase software.

[7] = tested on: HT-29 cells; assay: Stability in the presence of tumor cells (HT-29), FAP IC50 of supernatants; format: in vitro ADME, human
Procedure: Cells were cultured in McCoys's 5A modified medium (Biochrom, #F1015) including 10% fetal bovine serum (FBS), 2 mM L-glutamine, 100 U/ml penicillin and 100 μg/mL streptomycin (growth medium). […] 1 mL of the cell suspension were seeded in 24-well plates and incubated overnight at 37° C. and 5% CO2. The next day, cells were washed twice and growth medium was exchanged against DMEM without phenol red (Biochrom, #F0475) including 2 mM L-glutamine. Test compound was diluted in DMEM without phenol red (Biochrom, #F0475) including 2 mM L-glutamine. 400 μL of a 10 μM solution of the test compound was incubated for 24 hours at 37° C. and 5% CO2 in the presence of cells as well as in control wells (without cells) of the same 24-well plate.
25 μL of a 30 μM substrate solution, diluted in assay buffer, was added. All solutions were equilibrated at 37° C. prior to use. […] RFU/sec was calculated by SoftMax Pro software and plotted against test compound concentration. Four parameter logistic (4PL) curve fitting and IC50/pIC50 calculations were performed using GraphPad Prism 9.1 software.
The stability of exemplary compounds was further assessed in the presence of a variety of human cell lines from different tissue origins. […] Compounds were diluted in DMEM without phenol red (Biochrom, #F0475) including 2 mM L-glutamine. 400 μL of a 10 μM solution of the test compound was incubated for 24 hours at 37° C. and 5% CO2 in the presence of cells as well as in control wells (without cells) of the same 24-well plate. IC50/pIC50 determination of the supernatants was performed as described above.

[8] = recombinant human FAP, FRET protease activity
[9] = FAP-expressing WI-38 fibroblasts
[10] = human FAP protease activity, FRET
[11] = recombinant mouse FAP protease activity

Chain of recombinant human PREP (P48147 whole entry): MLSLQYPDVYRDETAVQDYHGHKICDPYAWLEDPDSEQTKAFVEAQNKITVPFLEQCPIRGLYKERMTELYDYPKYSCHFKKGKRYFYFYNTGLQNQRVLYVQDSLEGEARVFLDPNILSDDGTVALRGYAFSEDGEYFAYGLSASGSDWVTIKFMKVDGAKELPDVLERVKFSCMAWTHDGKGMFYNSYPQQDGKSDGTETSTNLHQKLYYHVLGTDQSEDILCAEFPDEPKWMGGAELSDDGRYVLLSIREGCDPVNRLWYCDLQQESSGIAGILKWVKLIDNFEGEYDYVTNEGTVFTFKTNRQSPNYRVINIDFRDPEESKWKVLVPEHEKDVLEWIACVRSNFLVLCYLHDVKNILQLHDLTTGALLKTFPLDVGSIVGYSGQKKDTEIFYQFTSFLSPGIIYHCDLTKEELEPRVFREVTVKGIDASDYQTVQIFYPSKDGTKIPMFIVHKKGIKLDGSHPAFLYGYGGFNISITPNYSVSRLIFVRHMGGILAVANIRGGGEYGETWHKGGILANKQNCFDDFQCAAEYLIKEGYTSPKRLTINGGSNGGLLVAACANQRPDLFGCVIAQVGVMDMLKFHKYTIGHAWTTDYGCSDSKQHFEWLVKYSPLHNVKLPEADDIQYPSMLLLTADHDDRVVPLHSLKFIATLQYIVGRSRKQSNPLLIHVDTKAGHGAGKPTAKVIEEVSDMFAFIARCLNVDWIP
Chain of Recombinant human DPP4 (P27487 whole entry): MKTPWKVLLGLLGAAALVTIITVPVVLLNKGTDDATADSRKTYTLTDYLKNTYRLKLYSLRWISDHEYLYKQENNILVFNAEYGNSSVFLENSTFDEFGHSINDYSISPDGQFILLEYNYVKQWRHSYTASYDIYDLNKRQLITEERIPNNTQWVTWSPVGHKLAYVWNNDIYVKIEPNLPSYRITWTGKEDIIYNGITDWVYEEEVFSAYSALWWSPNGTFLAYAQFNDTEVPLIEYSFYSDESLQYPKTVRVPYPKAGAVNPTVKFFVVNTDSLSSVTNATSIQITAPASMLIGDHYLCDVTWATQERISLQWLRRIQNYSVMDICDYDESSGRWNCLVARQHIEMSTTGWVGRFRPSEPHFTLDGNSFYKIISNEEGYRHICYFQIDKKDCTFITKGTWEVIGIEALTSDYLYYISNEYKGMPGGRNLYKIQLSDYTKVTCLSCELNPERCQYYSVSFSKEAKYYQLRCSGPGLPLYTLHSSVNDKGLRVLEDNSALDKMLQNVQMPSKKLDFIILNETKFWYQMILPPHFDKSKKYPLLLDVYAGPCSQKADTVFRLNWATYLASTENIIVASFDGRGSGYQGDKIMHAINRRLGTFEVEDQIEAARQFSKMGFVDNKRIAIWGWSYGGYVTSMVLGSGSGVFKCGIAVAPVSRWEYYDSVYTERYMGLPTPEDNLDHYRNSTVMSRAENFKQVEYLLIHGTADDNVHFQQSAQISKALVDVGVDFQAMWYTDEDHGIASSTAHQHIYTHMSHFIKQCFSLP
Chain of FAP-expressing human WI-38 fibroblasts (Q12884 whole entry): as the sequence (Q12884 whole entry) above
Chain of Recombinant mouse FAP (P97321 whole entry): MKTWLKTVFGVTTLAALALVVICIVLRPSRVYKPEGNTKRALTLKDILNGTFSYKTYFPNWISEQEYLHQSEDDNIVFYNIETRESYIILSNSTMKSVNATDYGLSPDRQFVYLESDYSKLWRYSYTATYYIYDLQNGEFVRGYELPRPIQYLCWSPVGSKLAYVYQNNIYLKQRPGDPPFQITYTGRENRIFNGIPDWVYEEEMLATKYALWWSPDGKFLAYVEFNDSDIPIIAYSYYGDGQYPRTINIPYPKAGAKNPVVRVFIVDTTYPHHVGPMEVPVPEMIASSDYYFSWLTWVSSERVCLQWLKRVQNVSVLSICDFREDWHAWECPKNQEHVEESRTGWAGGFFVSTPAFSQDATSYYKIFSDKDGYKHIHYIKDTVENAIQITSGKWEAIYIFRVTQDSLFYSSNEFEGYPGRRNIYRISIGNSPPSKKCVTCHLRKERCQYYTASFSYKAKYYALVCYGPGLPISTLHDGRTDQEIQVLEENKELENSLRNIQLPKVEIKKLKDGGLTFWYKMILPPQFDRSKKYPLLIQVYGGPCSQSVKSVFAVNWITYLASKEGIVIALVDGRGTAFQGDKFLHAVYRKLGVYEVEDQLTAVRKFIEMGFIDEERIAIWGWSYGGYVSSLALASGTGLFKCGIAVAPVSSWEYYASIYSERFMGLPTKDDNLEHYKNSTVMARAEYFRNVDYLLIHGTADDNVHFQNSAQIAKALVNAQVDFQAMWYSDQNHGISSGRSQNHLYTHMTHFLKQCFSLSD

pIC50 (DPP4) [1]	pIC50 (PREP) [2]	pIC50 (Activity) [3, 8]	pKD (Biacore) [4]	HL [min] (Biacore) [4]	pIC50 (FACS) [5, 9]	IC50 [2] [µM]	pIC50 (mouseFAP) ([6]; recombinant mouse FAP, FRET protease activity)	pIC50 (incubation in cell medium w/o HT-29) ([7]; 10 μM compound, 24 hours at 37° C. in control wells without cells, supernatant tested on recombinant human FAP)	pIC50 (incubation in the presence of HT-29 cells) ([7]; 10 μM compound, 24 hours at 37° C. with HT-29 cells, supernatant tested on recombinant human FAP)	Residual activity after incubation with HT-29 cells for 24 hours (%) ([7]; HT-29 cells, 24 hours)	pIC50 (Activity) [3, 10]	pIC50 (mouseFAP) [6, 11]	pIC50 (FACS) ([5]; WI-38 fibroblasts)	SMILES
<6											9.2	9.2	8.8	CS(=O)(=O)c1ccc(-c2ccc3nccc(C(=O)NCC(=O)N4C[C@@H](F)C[C@H]4C#N)c3c2)cc1 [Compound 3BP-3774]
<6											9.3	9	8.5	CS(=O)(=O)c1cc(F)c(-c2ccc3nccc(C(=O)NCC(=O)N4CCC[C@H]4C#N)c3c2)c(F)c1 [Compound 3BP-3828]
<6			>10.5	>150							9.4	8.9	8.9	N#C[C@@H]1CC(F)(F)CN1C(=O)CNC(=O)c1ccnc2ccc(-c3ccc(C(=O)NCCCNC(O)CN4CCN5CCN6CCN(CC4)CC(=O)[O][Eu]([O]C(=O)C6)[O]C(=O)C5)cc3)cc12 (stereo partly shown) [Compound 3BP-3829]
<6			10	64							9.3	8.7	8.5	N#C[C@@H]1CCCN1C(=O)CNC(=O)c1ccnc2ccc(-c3ccc(C(=O)NCCCNC(O)CN4CCN5CCN6CCN(CC4)CC(=O)[O][Eu]([O]C(=O)C6)[O]C(=O)C5)cc3)cc12 (stereo partly shown) [Compound 3BP-3830]
6.1											9.3	8.8	8.7	Cc1cc(S(C)(=O)=O)ccc1-c1ccc2nccc(C(=O)NCC(=O)N3CC(F)(F)C[C@H]3C#N)c2c1 [Compound 3BP-3952]
<6											9.2	8.9	7.9	Cc1cc(S(C)(=O)=O)ccc1-c1ccc2nccc(C(=O)NCC(=O)N3CCC[C@H]3C#N)c2c1 [Compound 3BP-3953]

The remaining lines, values behind:

SMILES	pIC50 (DPP4) [1]	pIC50 (PREP) [2]	pIC50 (Activity) [3, 8]	pKD (Biacore) [4]	HL [min] (Biacore) [4]	pIC50 (FACS) [5, 9]	IC50 [2] [µM]	pIC50 (mouseFAP) ([6]; recombinant mouse FAP, FRET protease activity)	pIC50 (incubation in cell medium w/o HT-29) ([7]; 10 μM compound, 24 hours at 37° C. in control wells without cells, supernatant tested on recombinant human FAP)	pIC50 (incubation in the presence of HT-29 cells) ([7]; 10 μM compound, 24 hours at 37° C. with HT-29 cells, supernatant tested on recombinant human FAP)	Residual activity after incubation with HT-29 cells for 24 hours (%) ([7]; HT-29 cells, 24 hours)	pIC50 (Activity) [3, 10]	pIC50 (mouseFAP) [6, 11]	pIC50 (FACS) ([5]; WI-38 fibroblasts)
CS(=O)(=O)c1cccc(-c2ccc3nccc(C(=O)NCC(=O)N4CCC[C@H]4C#N)c3c2)c1 [Compound 3BP-3132]	<6	<6	9	9.4	2.5	8.4								
CS(=O)(=O)c1cccc(-c2ccc3c(C(=O)NCC(=O)N4CCC[C@H]4C#N)ccnc3c2)c1 [Compound 3BP-3133]	<6	<6	8.7	9.3	5.7	8.2								
O=C(NCC(=O)N1CCC[C@H]1C(=O)c1nccs1)c1ccnc2ccccc12 [Compound 3BP-3206]	<6	7.6	7.3	7.9	0.3	7								
CS(=O)(=O)c1ccc(-c2ccc3nccc(C(=O)NCC(=O)N4CCC[C@H]4C#N)c3c2)cc1 [Compound 3BP-3235]	<6	<6	9.2	9.8	12	8.4								
N#C[C@@H]1CCCN1C(=O)CNC(=O)c1ccnc2cc(-c3cccc(C(=O)O)c3)ccc12 [Compound 3BP-3293]	<6	<6	8.8			8.6								
N#C[C@@H]1CCCN1C(=O)CNC(=O)c1ccnc2ccc(-c3ccc(C(=O)O)cc3)cc12 [Compound 3BP-3295]					11		> 1							
N#C[C@@H]1CC(F)(F)CN1C(=O)CNC(=O)c1ccnc2ccc(OCCCN3CCN(C(=O)CN4CCN5CCN6CCN(CC4)CC(=O)[O][Lu]([O]C(=O)C6)[O]C(=O)C5)CC3)cc12 [Compound 3BP-3469]	<6		9.3	10.2	35.5	8.7		9.1	9.2	8.3	13			
